Reference: patent US8563714B2, “Bridged spiro [2.4] heptane derivatives as ALX receptor and/or FPRL2 agonists” (Actelion Pharmaceuticals Ltd., priority 2009, dated 2013)
pEC50: −log10 of the molar value.

Key:
human ALX receptor = target: T1, human ALX receptor (Homo sapiens, UniProt P25090); test: Intracellular calcium measurements (FLIPR), agonistic activity in HEK293-hALXR-Gα16 cells; assay type: cell-based; conditions: Fluo-4 calcium FLIPR, normalized to WKYMVm 10 nM
T1 construct: expressed in transfected cells; host or cells: HEK293 (HEK293-hALXR-Gα16)
T1 sequence (P25090 1-351): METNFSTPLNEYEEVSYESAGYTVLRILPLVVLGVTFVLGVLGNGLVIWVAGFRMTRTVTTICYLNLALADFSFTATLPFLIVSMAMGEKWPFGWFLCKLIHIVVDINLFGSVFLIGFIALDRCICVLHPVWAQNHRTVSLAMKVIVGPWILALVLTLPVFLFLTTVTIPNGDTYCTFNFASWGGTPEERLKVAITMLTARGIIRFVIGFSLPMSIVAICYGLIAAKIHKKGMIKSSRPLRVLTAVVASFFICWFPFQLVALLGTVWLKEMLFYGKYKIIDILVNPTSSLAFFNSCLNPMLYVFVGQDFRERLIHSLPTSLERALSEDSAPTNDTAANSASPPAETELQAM
Outline: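 HEK293 cells expressing hALXR and Gα16 were loaded with 1 μM Fluo-4 AM and 20 mM HEPES for 60 min at 37°C, then exposed to serially diluted compound. FLIPR fluorescence was read at ex 488/em 540 nm. Baseline-subtracted peak responses were normalized to 10 nM WKYMVm.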

human FPRL2 = target: T2, human FPRL2 (Homo sapiens, UniProt P25089); test: Intracellular calcium measurements (FLIPR), agonistic activity in HEK293-hFPRL2-Gα16 cells; assay type: cell-based; conditions: Fluo-4 calcium FLIPR, normalized to GLY14-Humanin 100 nM
T2 construct: expressed in transfected cells; host or cells: HEK293 (HEK293-hFPRL2-Gα16)
T2 sequence (P25089 1-353): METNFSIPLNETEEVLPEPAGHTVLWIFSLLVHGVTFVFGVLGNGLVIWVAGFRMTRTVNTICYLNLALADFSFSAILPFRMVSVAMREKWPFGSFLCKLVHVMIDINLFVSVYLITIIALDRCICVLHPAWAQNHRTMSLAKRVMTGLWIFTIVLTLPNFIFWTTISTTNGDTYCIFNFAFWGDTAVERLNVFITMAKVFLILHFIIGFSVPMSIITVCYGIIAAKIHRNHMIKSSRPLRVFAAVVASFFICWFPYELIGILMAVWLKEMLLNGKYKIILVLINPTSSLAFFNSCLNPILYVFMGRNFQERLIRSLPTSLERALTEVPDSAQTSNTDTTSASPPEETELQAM
Outline: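 Peak values after baseline subtraction are expressed relative to 100 nM Gly14-Humanin; compounds diluted in assay buffer from 10 mM DMSO stocks.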

SMILES | pEC50 (human ALX receptor) | pEC50 (human FPRL2)
O=C(NCCCCCN1CCCC1)[C@H]1[C@H](C(=O)Nc2ccc(Br)cc2)[C@@H]2C=C[C@H]1C21CC1 [Example 221, (5R)—N^5-(4-Bromophenyl)-(6R)—N^6-(5-pyrrolidino-pentyl)-(4S,7R)-[4,7-ethenylene-spiro[2.4]heptane]-5,6-dicarboxamide] | 9.18 | 7.39
O=C(NCCCCN1CCCC1)[C@H]1[C@H](C(=O)Nc2ncc(Br)s2)[C@@H]2C=C[C@H]1C21CC1 [Example 225, (5R)—N^5-(5-Bromo-thiazol-2-yl)-(6R)—N^6-(4-pyrrolidin-1-yl-butyl)-(4S,7R)-[4,7-ethenylene-spiro[2.4]heptane]-5,6-dicarboxamide] | 8.19 | 6.84
O=C(NCCCCN1CCCC1)[C@H]1[C@H](C(=O)Nc2ncc(Br)s2)[C@@H]2CC[C@H]1C21CC1 [Example 238, (5R)—N^5-(5-Bromo-thiazol-2-yl)-(6R)—N^6-(4-pyrrolidin-1-yl-butyl)-(4S,7R)-[4,7-ethylene-spiro[2.4]heptane]-5,6-dicarboxamide] | 7.66 | 6.85
NC(=O)CCNC(=O)[C@H]1[C@H](C(=O)Nc2ncc(Br)s2)[C@@H]2CC[C@H]1C21CC1 [Example 239, (5R)—N^5-(5-Bromo-thiazol-2-yl)-(6R)—N^6-(3-amino-3-oxopropyl)-(4S,7R)-[4,7-ethylene-spiro[2.4]heptane]-5,6-dicarboxamide] | 7.82 | < 4.60
CC(C)CNC(=O)C1C(C(=O)Nc2ncc(Br)s2)C2C=CC1C21CC1 (stereo not drawn) [Example 245, (5R*)—N^5-(5-Bromo-thiazol-2-yl)-(6R*)—N^6-(isobutyl)-(4S*,7R*)-[4,7-ethenylene-spiro[2.4]heptane]-5,6-dicarboxamide] | 8.41 | 5.08
CCN(CC)CCCCNC(=O)C1C(C(=O)NCc2ccc(Br)cc2)C2C=CC1C21CC1 (stereo not drawn) [Example 272, (5R*)—N^5-(4-Bromophenyl-methyl)-(6R*)—N^6-(4-diethylamino-butyl)-(4S*,7R*)-[4,7-ethenylene-spiro[2.4]heptane]-5,6-dicarboxamide] | 6.92 | 6.52
O=C(NCCCCN1CCCC1)[C@H]1[C@H](C(=O)Nc2ccc(Br)nc2)[C@@H]2CC[C@H]1C21CC1 [Example 279, (5R)—N^5-(2-Bromopyrid-5-yl)-(6R)—N^6-(4-pyrrolidino-butyl)-(4S,7R)-[4,7-ethylene-spiro[2.4]heptane]-5,6-dicarboxamide] | 8.89 | 7.21
O=C(NCCCCN1CCCC1)[C@H]1[C@H](C(=O)NCc2ccc(Br)cc2F)[C@@H]2C=C[C@H]1C21CC1 [Example 284, (5R)—N^5-(4-Bromo-2-fluorophenyl-methyl)-(6R)—N^6-(4-pyrrolidino-butyl)-(4S,7R)-[4,7-ethenylene-spiro[2.4]heptane]-5,6-dicarboxamide] | 7.89 | 6.58
COc1ccc(NC(=O)[C@H]2[C@H](C(=O)NCCCCN3CCCC3)[C@H]3C=C[C@@H]2C32CC2)cc1 [Example 285, (5R)—N^5-(4-Methoxyphenyl)-(6R)—N^6-(4-pyrrolidino-butyl)-(4S,7R)-[4,7-ethenylene-spiro[2.4]heptane]-5,6-dicarboxamide] | 8.05 | 6.65

Further lines, results first:

pEC50 (human ALX receptor) | pEC50 (human FPRL2) | SMILES
9.46 | 6.63 | O=C(NCCCCN1CC[C@H](F)C1)[C@H]1[C@H](C(=O)Nc2ccc(Br)cc2)[C@@H]2C=C[C@H]1C21CC1 [Example 220, (5R)—N^5-(4-Bromophenyl)-(6R)—N^6-(4-((3S)-fluoropyrrolidino)butyl)-(4S,7R)-[4,7-ethenylene-spiro[2.4]heptane]-5,6-dicarboxamide]
8.09 | < 4.60 | NC(=O)CCNC(=O)[C@H]1[C@H](C(=O)Nc2ncc(Br)s2)[C@@H]2C=C[C@H]1C21CC1 [Example 240, (5R)—N^5-(5-Bromo-thiazol-2-yl)-(6R)—N^6-(3-amino-3-oxopropyl)-(4S,7R)-[4,7-ethenylene-spiro[2.4]heptane]-5,6-dicarboxamide]
6.62 | < 4.60 | NC(=O)CCNC(=O)[C@H]1[C@H](C(=O)NCc2ccc(Br)cc2)[C@@H]2C=C[C@H]1C21CC1 [Example 241, (5R)—N^5-(4-Bromo-phenyl-methyl)-(6R)—N^6-(3-amino-3-oxopropyl)-(4S,7R)-[4,7-ethenylene-spiro[2.4]heptane]-5,6-dicarboxamide]
8.23 | 5.21 | NC(=O)CCNC(=O)[C@H]1[C@H](C(=O)Nc2ccc(Br)nc2)[C@@H]2C=C[C@H]1C21CC1 [Example 242, (5R)—N^5-(2-Bromo-pyrid-5-yl)-(6R)—N^6-(3-amino-3-oxopropyl)-(4S,7R)-[4,7-ethenylene-spiro[2.4]heptane]-5,6-dicarboxamide]
6.88 | 5.75 | Cc1ccc(NC(=O)C2C(C(=O)NCCCCN3CCCC3)C3C=CC2C32CC2)cn1 (stereo not drawn) [Example 253, (5R*)—N^5-(2-Methyl-pyridin-5-yl)-(6R*)—N^6-(4-pyrrolidin-1-yl-butyl)-(4S*,7R*)-[4,7-ethenylene-spiro[2.4]heptane]-5,6-dicarboxamide]
8.96 | 6.76 | O=C(NCCCCN1CCCC1)[C@H]1[C@H](C(=O)Nc2ccc(Br)nc2)[C@@H]2C=C[C@H]1C21CC1 [Example 258, (5R)—N^5-(2-Bromo-pyridin-5-yl)-(6R)—N^6-(4-pyrrolidin-1-yl-butyl)-(4S,7R)-[4,7-ethenylene-spiro[2.4]heptane]-5,6-dicarboxamide]
8.10 | < 4.60 | NC(=O)CCNC(=O)[C@H]1[C@H](C(=O)Nc2ccc(Br)nc2)[C@@H]2CC[C@H]1C21CC1 [Example 278, (5R)—N^5-(2-Bromopyrid-5-yl)-(6R)—N^6-(3-amino-3-oxopropyl)-(4S,7R)-[4,7-ethylene-spiro[2.4]heptane]-5,6-dicarboxamide]
6.59 | < 4.60 | NC(=O)CCNC(=O)[C@H]1[C@H](C(=O)Nc2ccc(Br)cn2)[C@@H]2C=C[C@H]1C21CC1 [Example 280, (5R)—N^5-(5-Bromopyrid-2-yl)-(6R)—N^6-(3-amino-3-oxopropyl)-(4S,7R)-[4,7-ethenylene-spiro[2.4]heptane]-5,6-dicarboxamide]
7.51 | < 4.60 | NC(=O)CCNC(=O)[C@H]1[C@H](C(=O)Nc2ccc(Cl)nc2)[C@@H]2C=C[C@H]1C21CC1 [Example 281, (5R)—N^5-(2-Chloropyrid-5-yl)-(6R)—N^6-(3-amino-3-oxopropyl)-(4S,7R)-[4,7-ethenylene-spiro[2.4]heptane]-5,6-dicarboxamide]
6.84 | < 4.60 | NC(=O)CCNC(=O)[C@H]1[C@H](C(=O)NCc2ccc(Br)cc2F)[C@@H]2C=C[C@H]1C21CC1 [Example 282, (5R)—N^5-(4-Bromo-2-fluorophenyl-methyl)-(6R)—N^6-(3-amino-3-oxopropyl)-(4S,7R)-[4,7-ethenylene-spiro[2.4]heptane]-5,6-dicarboxamide]
6.05 | < 4.60 | NC(=O)CCNC(=O)[C@H]1[C@H](C(=O)NCc2cnc(Br)s2)[C@@H]2C=C[C@H]1C21CC1 [Example 283, (5R)—N^5-(2-Bromothiazol-5-yl-methyl)-(6R)—N^6-(3-amino-3-oxopropyl)-(4S,7R)-[4,7-ethenylene-spiro[2.4]heptane]-5,6-dicarboxamide]
